In patent publication US20210179569A1, “BENZAMIDE COMPOUNDS AND THEIR USE AS HERBICIDES II” (BASF SE, priority 2017, published 2021):

Assays:
Experiment in all cases: post-emergence greenhouse herbicidal test
Format in all cases: in vivo
Details in all cases: application rate 250 g/ha, 100 = complete destruction, 0 = no damage
[1] = system: ECHCG (Echinocloa crus-galli)
Excerpt: (§1) The seeds of the test plants were sown separately for each species. For the post-emergence treatment, the test plants were first grown to a height of 3 to 15 cm, depending on the plant habit, and only then treated with the active ingredients which had been suspended or emulsified in water. For this purpose, the test plants were either sown directly and grown in the same containers, or they were first grown separately as seedlings and transplanted into the test containers a few days prior to treatment. Depending on the species, the plants were kept at 10-25° C. or 20-25° C., respectively. The test period extended over 2 to 4 weeks. During this time, the plants were tended, and their response to the individual treatments was evaluated. Evaluation was carried out using a scale from 0 to 100. 100 means no emergence of the plants, or complete destruction of at least the aerial moieties, and 0 means no damage, or normal course of growth. A good herbicidal activity is given at values of at least 70 and a very good herbicidal activity is given at values of at least 85. At an application rate of 250 g/ha the following compounds were tested in post-emergence tests against: ECHCG (Echinocloa crus-galli) AMARE (Amaranthus retroflexus) CHEAL (Chenopodium album)

[2] = system: CHEAL (Chenopodium album)
Excerpt: as §1

[3] = system: AMARE (Amaranthus retroflexus)
Excerpt: as §1

CN(CC(F)(F)F)C(=O)Nc1cc(Cl)cc(C(=O)Nc2nnnn2C)c1Cl [Example 2, 2,5-dichloro-3-[(2,2,2-trifluoroethyl)(methyl)carbamoylamino]-N-(1-methyltetrazol-5-yl)benzamide]
>80: herbicidal activity against ECHCG (scale from 0 to 100) [1] | herbicidal activity against CHEAL (scale from 0 to 100) [2] | herbicidal activity against AMARE (scale from 0 to 100) [3]

Cn1nnnc1NC(=O)c1cc(Cl)cc(NC(=O)N(C2CC2)C2CC2)c1Cl [Example 1, 2,5-dichloro-3-(dicyclopropylcarbamoylamino)-N-(1-methyltetrazol-5-yl)benzamide]
>80: herbicidal activity against ECHCG (scale from 0 to 100) [1] | herbicidal activity against CHEAL (scale from 0 to 100) [2] | herbicidal activity against AMARE (scale from 0 to 100) [3]
